Reference: patent publication US20240262842A1, “SMALL MOLECULE INHIBITORS OF KRAS G12C MUTANT” (Merck Sharp & Dohme LLC, priority 2021, published 2024)
Where two headings read alike, the source gives them in different places.

Tests used:
[1] = molecular target: T1, interaction between GMPPNP-bound recombinant K-Ras4B G12C mutant protein and cRAF RAS-binding domain (cRAF-RBD) (Homo sapiens, UniProt P01116, G12C); assay: Inhibitory activity on interaction between KRAS G12C and cRAF (Alpha technology); settings: Table 2-1
T1 construct: His-tag (N)
Summary of the method: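 Alpha signal measured 1.5 h after adding cRAF-RBD (aa 50-132) and detection reagents to GMPPNP-bound KRAS G12C (aa 1-169) pretreated 1 h at 25° C with compound (pH 7.5 buffer). 0% inhibition = DMSO, 100% = GDP-loaded KRAS; IC50 by curve fit.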

[2] = system: MIA PaCa-2 cells; assay: Growth inhibition activity on KRAS-G12C mutant cell line (CellTiter-Glo 3D); type: cell-based, human; settings: MIA PaCa-2, 3-day culture with compound, Table 3-1
Summary of the method: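 IC50 (nM) derived from inhibition of luminescence (CellTiter-Glo 3D) relative to compound-free wells. Cells were seeded in U-bottom plates, grown 1 day, then exposed to compound for 3 days at 37 °C with 0.2% final DMSO.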

[3] = GMPPNP-bound KRAS G12C incubated with compound 25° C. 1 hour, read-out: IC50
[4] = IC50, GMPPNP-bound KRAS G12C incubated with compound 25° C. 1 hour

T1 sequence (P01116 with tags, fused parts or gaps isoform P01116-2 G12C): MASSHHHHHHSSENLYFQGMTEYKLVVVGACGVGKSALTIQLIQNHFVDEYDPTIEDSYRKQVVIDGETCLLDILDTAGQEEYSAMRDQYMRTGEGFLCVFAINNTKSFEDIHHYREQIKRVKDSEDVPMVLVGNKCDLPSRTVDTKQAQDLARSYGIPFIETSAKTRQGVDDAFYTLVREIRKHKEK

| Structure (SMILES) | IC50 [1, 3] [µM] | IC50 ([2]; Homo sapiens, MIA PaCa-2, 72 h) [µM] | IC50 [1, 4] [µM] | IC50 [2] [µM] |
| --- | --- | --- | --- | --- |
| Cn1cnc2c3c(c(C(F)(F)F)cc21)-c1cccn2c(C(=O)c4cc(F)c(NC(=O)/C=C/CNC5(C)COC5)c(F)c4)cc(c12)CCO3 (single isomer, unassigned) [Example 75, (E)-N-(2,6-difluoro-4-(9-methyl-7-(trifluoro-methyl)-13,14-dihydro-9H-imidazo[4″,5″:5′,6′]-benzo[1′,2′:2,3]oxocino-[4,5,6-hi]indolizine-2-carbonyl)phenyl)-4-((3-methyloxetan-3-yl)-amino)but-2-enamide] | 0.0159 | 0.00948 | – | – |
| CN1CCc2cc(C(=O)c3cc(F)c(NC(=O)/C=C/CNC4(C)COC4)c(F)c3)n3cccc(c23)-c2c(C(F)(F)F)cc3c(ncn3C)c21 (single isomer, unassigned) [Example 83] | 0.0339 | 0.0154 | – | – |
| Cc1nc2c3c(c(C(F)(F)F)cc2n1C)-c1cccc2c(C(=O)c4cc(F)c(NC(=O)/C=C/CN[C@H]5CCOC5)c(F)c4)cn(c12)CCN3C (single isomer, unassigned) [Example 87] | – | 0.00327 | 0.0182 | – |
| CN1CCc2cc(C(=O)c3cc(F)c(NC(=O)/C=C/CN[C@@H]4CCOC4)c(F)c3)n3cccc(c23)-c2c(C(F)(F)F)cc3c(ncn3C)c21 (single isomer, unassigned) [Example 89] | 0.016 | 0.00437 | – | – |
| Cc1cc2c(nc(C)n2C)c2c1-c1cccc3c(C(=O)c4cc(F)c(NC(=O)/C=C/CN[C@H]5CCOC5)c(F)c4)cn(c13)CCN2C (single isomer, unassigned) [Example 90] | – | 0.0216 | 0.0172 | – |
| COCc1nc2c3c(c(C(F)(F)F)cc2n1C)-c1cccn2c(C(=O)c4cc(F)c(NC(=O)/C=C/CNC5(C)COC5)c(F)c4)cc(c12)CCN3C (single isomer, unassigned) [Example 92, (E)-N-(2,6-difluoro-4-(10-(methoxymethyl)-9,12-dimethyl-7-(trifluoromethyl)-9,12,13,14-tetrahydroimidazo[4″,5″:5′,6′]benzo[1′,2′:2,3]azocino[4,5,6-hi]indolizine-2-carbonyl)phenyl)-4-((3-methyloxetan-3-yl)amino)but-2-enamide] | 0.0199 | 0.0121 | – | – |
| Cc1nc2c3c(c(C(F)(F)F)cc2n1C)-c1cccc2c(C(=O)c4cc(F)c(NC(=O)/C=C/CN[C@@H]5CCOC5)c(F)c4)cn(c12)CCN3C (single isomer, unassigned) [Example 95] | – | 0.0114 | 0.0312 | – |
| COCc1nc2c3c(c(C(F)(F)F)cc2n1C)-c1cccc2c(C(=O)c4cc(F)c(NC(=O)/C=C/CNC5(C)COC5)c(F)c4)cn(c12)CCN3C (single isomer, unassigned) [Example 97, (E)-N-(2,6-difluoro-4-(9-(methoxymethyl)-8,11-dimethyl-6-(trifluorometh-yl)-8,11,12,13-tetrahydro-imidazo[4″,5″:5′,6′]benzo-[1′,2′:5,6][1,4]diazocino-[7,8,1-hi]indole-2-carbon-yl)phenyl)-4-((3-methyl-oxetan-3-yl)amino)but-2-enamide] | – | 0.00791 | 0.0304 | – |
| COCc1nc2c3c(c(C(F)(F)F)cc2n1C)-c1cccn2c(C(=O)c4cc(F)c(NC(=O)/C=C/CN[C@H]5CCOC5)c(F)c4)cc(c12)CCN3C (single isomer, unassigned) [Example 98] | 0.0111 | 0.00394 | – | – |
| COCc1nc2c3c(c(C(F)(F)F)cc2n1C)-c1cccn2c(C(=O)c4cc(F)c(NC(=O)/C=C/CNC5(C)COC5)c(F)c4)cc(c12)CCO3 (single isomer, unassigned) [Example 99, (E)-N-(2,6-difluoro-4-(10-(methoxymethyl)-9-meth-yl-7-(trifluoromethyl)-13,14-dihydro-9H-imidazo[4″,5″:5′,6′]benzo-[1′,2′:2,3]oxocino[4,5,6-hi]indolizine-2-carbonyl)-phenyl)-4-((3-methyl-oxetan-3-yl)amino)-but-2-enamide] | 0.0122 | 0.00979 | – | – |
| COCc1nc2c3c(c(C)cc2n1C)-c1cccn2c(C(=O)c4cc(F)c(NC(=O)/C=C/CN[C@H]5CC[C@H](OC)CC5)c(F)c4)cc(c12)CCN3C (single isomer, unassigned) [Example 105, (E)-N-(2,6-difluoro-4-(10-(methoxymethyl)-7,9,12-trimethyl-9,12,13,14-tetra-hydroimidazo[4″,5″:5′,6′]-benzo[1′,2′:2,3]azocino-[4,5,6-hi]indolizine-2-carbonyl)phenyl)-4-(((1r,4r)-4-methoxycyclo-hexyl)amino)but-2-en-amide] | 0.0192 | 0.0155 | – | – |
| COCc1nc2c3c(c(C)cc2n1C)-c1cccn2c(C(=O)c4cc(F)c(NC(=O)/C=C/CN[C@H]5CCOC5)c(F)c4)cc(c12)CCN3C (single isomer, unassigned) [Example 106] | 0.018 | 0.022 | – | – |
| Cc1cc2c(nc(C)n2C)c2c1-c1cccn3c(C(=O)c4cc(F)c(NC(=O)/C=C/CN[C@H]5CCOC5)c(F)c4)cc(c13)CCN2C (single isomer, unassigned) [Example 107] | 0.0237 | 0.0297 | – | – |
| Cc1cc2c(ncn2C)c2c1-c1cccn3c(C(=O)c4cc(F)c(NC(=O)/C=C/CN[C@H]5CCOC5)c(F)c4)cc(c13)CCN2C (single isomer, unassigned) [Example 117] | 0.0205 | 0.0553 | – | – |
| COc1cc2c(nc(C)n2C)c2c1-c1cccn3c(C(=O)c4cc(F)c(NC(=O)/C=C/CN[C@H]5CCOC5)c(F)c4)cc(c13)CCN2C (single isomer, unassigned) [Example 129] | 0.0088 | 0.00711 | – | – |
| CC1Cc2cc(C(=O)c3cc(F)c(NC(=O)/C=C/CNC4(C)COC4)c(F)c3)n3cccc(c23)-c2c(C(F)(F)F)cc3c(ncn3C)c2O1 (single isomer, unassigned) [Example 130-1, (E)-N-(4-(9,13-dimethyl-7-(trifluoromethyl)-13,14-dihydro-9H-imidazo[4″,5″:5′,6′]benzo[1′,2′:2,3]oxocino[4,5,6-hi]indolizine-2-carbonyl)-2,6-difluorophenyl)-4-((3-methyloxetan-3-yl)amino)but-2-enamide] | 0.0263 | – | – | 0.0174 |
| CC1Cc2cc(C(=O)c3cc(F)c(NC(=O)/C=C/CNC4(C)COC4)c(F)c3)n3cccc(c23)-c2c(C(F)(F)F)cc3c(ncn3C)c2O1 (single isomer, unassigned) [Example 130-2, (E)-N-(4-(9,13-dimethyl-7-(trifluoromethyl)-13,14-dihydro-9H-imidazo[4″,5″:5′,6′]benzo[1′,2′:2,3]oxocino[4,5,6-hi]indolizine-2-carbonyl)-2,6-difluorophenyl)-4-((3-methyloxetan-3-yl)amino)but-2-enamide] | 3.76 | – | – | 3.41 |
| CC1Cc2cc(C(=O)c3cc(F)c(NC(=O)/C=C/CNC4(C)COC4)c(F)c3)n3cccc(c23)-c2c(C(F)(F)F)cc3c(ncn3C)c2O1 (single isomer, unassigned) [Example 131, (E)-N-(4-(9,13-dimethyl-7-(trifluoromethyl)-13,14-dihydro-9H-imidazo[4″,5″:5′,6′]benzo[1′,2′:2,3]oxocino[4,5,6-hi]indolizine-2-carbonyl)-2,6-difluorophenyl)-4-((3-methyloxetan-3-yl)amino)but-2-enamide] | 0.0279 | – | – | 0.0408 |
| COc1cc2c(nc(C)n2C)c2c1-c1cccn3c(C(=O)c4cc(F)c(NC(=O)/C=C/CNC5(C)CC5)c(F)c4)cc(c13)CCN2C (single isomer, unassigned) [Example 140, (E)-N-(2,6-difluoro-4-(7-methoxy-9,10,12-trimethyl-9,12,13,14-tetrahydroimidazo[4″,5″:5′,6′]benzo[1′,2′:2,3]azocino[4,5,6-hi]indolizine-2-carbonyl)phenyl)-4-((1-methylcyclopropyl)amino)but-2-enamide] | 0.00413 | 0.00759 | – | – |
| COc1cc2c(nc(C)n2C)c2c1-c1cccn3c(C(=O)c4cc(F)c(NC(=O)/C=C/CNC5(C)COC5)c(F)c4)cc(c13)CCN2C (single isomer, unassigned) [Example 141, (E)-N-(2,6-difluoro-4-(7-methoxy-9,10,12-trimethyl-9,12,13,14-tetrahydroimidazo[4″,5″: 5′,6′]benzo[1′,2′:2,3]-azocino[4,5,6-hi]indol-izine-2-carbonyl)phenyl)-4-((3-methyloxetan-3-yl)-amino)but-2-enamide] | 0.00971 | 0.0343 | – | – |
| Cc1cc2c(C)n(C)nc2c2c1-c1cccn3c(C(=O)c4cc(F)c(NC(=O)/C=C/CNC5(C)COC5)c(F)c4)cc(c13)CCN2C (single isomer, unassigned) [Example 145, (E)-N-(2,6-difluoro-4-(7,9,10,12-tetramethyl-10,12,13,14-tetrahydro-indolizino[8′,1′:4,5,6]-azocino[3,2-g]indazole-2-carbonyl)phenyl)4-((3-methyloxetan-3-yl)-amino)-but-2-enamide] | 0.0723 | 0.162 | – | – |
| CN1CCc2cc(C(=O)c3cc(F)c(NC(=O)/C=C/CNC4(C)COC4)c(F)c3)n3cccc(c23)-c2c(C(F)(F)F)cc3c(ncn3C3CC3)c21 (single isomer, unassigned) [Example 153, (E)-N-(4-(9-cyclopropyl-12-methyl-7-(trifluoro-methyl)-9,12,13,14-tetra-hydroimidazo[4″,5″:5′,6′]-benzo[1′,2′:2,3]azocino-[4,5,6-hi]indolizine-2-carbonyl)-2,6-difluoro-phenyl)-4-((3-methyloxe-tan-3-yl)amino)but-2-enamide] | 0.0315 | 0.118 | – | – |
